Results published in PubChem BioAssay (NCI).
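All cell lines were grown in 96-well plates and treated with compound for 48 hours. GI50 is the concentration that inhibits growth by half. Definition used: TGI = concentration required for complete inhibition of growth.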

How the values were obtained:
Assay in all cases: growth of human tumour cells (NCI), 48 h; in the data active means GI50 below about 0.43 µM; inactive means the rest
[1] = test system: MCF7 breast
[2] = test system: UACC-62 melanoma
[3] = test system: ACHN renal
[4] = test system: MDA-MB-435
[5] = test system: SR leukemia
[6] = test system: HS 578T breast
[7] = test system: UACC-257 melanoma
[8] = test system: K-562 leukemia
[9] = test system: 786-0 renal
[10] = test system: RXF 393 renal
[11] = test system: U251 CNS
[12] = test system: RPMI-8226 leukemia
[13] = test system: SK-OV-3 ovarian
[14] = test system: CCRF-CEM leukemia
[15] = test system: PC-3 prostate
[16] = test system: OVCAR-5 ovarian
[17] = test system: MOLT-4 leukemia
[18] = test system: NCI-H226 lung
[19] = test system: SW-620 colon
[20] = test system: LOX IMVI melanoma
[21] = test system: CAKI-1 renal
[22] = test system: BT-549 breast
[23] = test system: UO-31 renal
[24] = test system: TK-10 renal
[25] = test system: A549 NSCLC
[26] = test system: OVCAR-4 ovarian
[27] = test system: EKVX NSCLC
[28] = test system: NCI-H522 lung
[29] = test system: KM12 colon
[30] = test system: SF-539 CNS
[31] = test system: MDA-MB-231 breast
[32] = test system: HL-60(TB) leukemia
[33] = test system: HOP-92 NSCLC
[34] = test system: HCT-15 colon
[35] = test system: COLO 205 colon
[36] = test system: IGROV1 ovarian
[37] = test system: SK-MEL-5 melanoma
[38] = test system: DU-145 prostate
[39] = test system: SF-295 CNS
[40] = test system: OVCAR-3 ovarian
[41] = test system: NCI-H460 lung
[42] = test system: SNB-19 CNS
[43] = test system: SF-268 CNS
[44] = test system: OVCAR-8 ovarian
[45] = test system: SN12C renal
[46] = test system: M14 melanoma
[47] = test system: SNB-75 CNS
[48] = test system: SK-MEL-2 melanoma
[49] = test system: NCI-H23 lung
[50] = test system: HT29 colon
[51] = test system: HOP-62 NSCLC
[52] = test system: SK-MEL-28 melanoma
[53] = test system: HCC-2998 colon
[54] = test system: A498 renal
[55] = test system: MALME-3M melanoma
[56] = test system: NCI/ADR-RES ovarian

Cc1[nH][nH]c(=O)c1C=Nc1ccc(-c2nc3ccccc3[nH]2)cc1
0.612 µM: TGI [1]
46.6 µM: TGI [10]
42.1 µM: TGI [7]
89.7 µM: TGI [29]
76.5 µM: TGI [26]
50.9 µM: TGI [46]
36.2 µM: TGI [37]
42.3 µM: TGI [39]
44.7 µM: TGI [11]
38 µM: TGI [2]
96.5 µM: TGI [45]
inactive: GI50 [2] 15.5 µM | GI50 [3] 30.1 µM | GI50 [4] 16.8 µM | GI50 [5] 39.7 µM | GI50 [6] 29 µM | GI50 [7] 19.9 µM | GI50 [8] 27.4 µM | GI50 [9] 18.9 µM | GI50 [10] 11.1 µM | GI50 [11] 19 µM | GI50 [12] 38.2 µM | GI50 [13] 41.9 µM | GI50 [15] 80.8 µM | GI50 [16] 46 µM | GI50 [17] 52 µM | GI50 [18] 33.7 µM | GI50 [19] 25.6 µM | GI50 [20] 16.8 µM | GI50 [21] 19.1 µM | GI50 [22] 36.2 µM | GI50 [23] 31.8 µM | GI50 [24] > 100 µM | GI50 [25] 42.9 µM | GI50 [26] 24.4 µM | GI50 [27] 19.8 µM | GI50 [28] 31.1 µM | GI50 [29] 18.3 µM | GI50 [30] 22.2 µM | GI50 [31] 12.8 µM | GI50 [32] 22.6 µM | GI50 [33] > 100 µM | GI50 [34] 22 µM | GI50 [35] 19.5 µM | GI50 [36] 24.6 µM | GI50 [37] 18 µM | GI50 [38] 34.8 µM | GI50 [39] 18.4 µM | GI50 [40] 14.9 µM | GI50 [41] 33.3 µM | GI50 [42] 22.6 µM | GI50 [43] 14.4 µM | GI50 [44] 20.7 µM | GI50 [45] 36.7 µM | GI50 [46] 30.6 µM | GI50 [47] 19.6 µM | GI50 [48] 23.3 µM
41.6 µM: TGI [30]
48.1 µM: TGI [35]
55.7 µM: TGI [19]
33.8 µM: TGI [31]
> 100 µM: TGI [3] | TGI [12] | TGI [13] | TGI [14] | TGI [15] | TGI [16] | TGI [17] | TGI [18] | TGI [23] | TGI [24] | TGI [25] | TGI [32] | TGI [33] | TGI [36] | TGI [38] | TGI [41]
36 µM: TGI [40]
63.9 µM: TGI [6]
40.5 µM: TGI [47]
78.1 µM: TGI [28]
51.1 µM: TGI [27] | TGI [43]
51.2 µM: TGI [21]
38.3 µM: TGI [9]
54.6 µM: TGI [44]
active: GI50 [14] 0.066 µM
55.6 µM: TGI [34]
48 µM: TGI [48]
57.3 µM: TGI [42]
33.7 µM: TGI [4]
30.5 µM: TGI [20]
97.1 µM: TGI [5] | TGI [22]
87.2 µM: TGI [8]

O=c1c(-c2ccccc2)c(SCCCN2CCN(c3cccc(Cl)c3)CC2)n(-c2ccccc2)c(=S)n1-c1ccccc1
> 100 µM: TGI [1] | TGI [2] | TGI [49] | TGI [3] | TGI [50] | TGI [5] | TGI [6] | TGI [7] | TGI [8] | TGI [51] | TGI [52] | TGI [10] | TGI [53] | TGI [11] | TGI [12] | TGI [13] | TGI [14] | TGI [15] | TGI [16] | TGI [17] | TGI [18] | TGI [19] | TGI [20] | TGI [21] | TGI [22] | TGI [24] | TGI [26] | TGI [27] | TGI [28] | TGI [29] | TGI [30] | TGI [31] | TGI [32] | TGI [33] | TGI [34] | TGI [35] | TGI [36] | TGI [37] | TGI [38] | TGI [39] | TGI [40] | TGI [54] | TGI [55] | TGI [41] | TGI [56] | TGI [44] | TGI [47] | TGI [48]
42.4 µM: TGI [4]
